Data: patent US20220315624A1, “THIOSTREPTON ANALOGS AND METHODS OF MAKING AND USING SAME” (YALE UNIVERSITY, priority 2019, published 2022)
Converted amounts (≈) assume the structure as drawn.

Key:
S. aureus isolates = assay: MIC broth microdilution, S. aureus isolates; format: cell-based; conditions: Staphylococcus aureus; across MSSA and MRSA isolates; read-out: MIC values against S. aureus isolates
Protocol: (§1) Twenty-four test agents were shipped to Micromyx and stored at −20° C. until assayed. The compounds were dissolved in 100% DMSO at 6.46 mg/mL prior to testing. Comparator drugs were supplied by Micromyx and were handled as described below:
(§2) The test organisms for the assay were recent clinical isolates or reference strains acquired from the American Type Culture Collection (ATCC; Manassas, Va.). Upon receipt, the isolates were streaked onto Trypticase Soy Agar II+5% sheep blood (TSAB). Colonies were harvested from the plates and a cell suspension was prepared in Trypticase Soy Broth containing cryoprotectant. Aliquots were then frozen at −80° C. Prior to the assay, the frozen seeds of all bacterial isolates to be tested were thawed and streaked for isolation onto TSAB (BD/BBL, Sparks, Md.; Lot No. 9011894), and were incubated overnight at 35° C.
(§3) The test medium for all isolates was cation-adjusted Mueller Hinton broth (CAMHB; BD/BBL; Lot No. 8190586). CAMHB (Cation Adjusted Mueller Hinton Broth) was supplemented with 3% (v/v) lysed horse blood (LHB; Hemostat, Dixon, Calif.; Lot No. 474990) for the testing of streptococci.
(§4) MIC values were determined using a broth microdilution method as recommended by CLSI. Automated liquid handlers (Multidrop 384, Labsystems, Helsinki, Finland; Biomek 2000 and Biomek F/X, Beckman Coulter, Fullerton Calif.) were used to conduct serial dilutions and make liquid transfers.
(§5) The wells of standard 96-well microdilution plates (Costar 3795, Corning Inc., Corning, N.Y.) were filled with 150 μL of the appropriate diluent in columns 2-12 on the Multidrop 384 (DMSO for the thiostrepton analogs, deionized H2O for vancomycin and ceftazidime). These plates were used to prepare the drug “mother plate” which provided the serial drug dilutions for the replicate “daughter plates”. The compounds (300 μL) were dispensed at 101× the highest concentration to be tested into the appropriate row of the “mother plate”. The Biomek 2000 was used to transfer 150 μL of each stock solution from the wells in Column 1 of the mother plate to make ten subsequent 2-fold serial dilutions. The wells of Column 12 contained no drug and served as the organism growth control wells. The daughter plates were loaded with 190 μL of test medium using the Multidrop 384.
(§6) The daughter plates were prepared on the Biomek F/X instrument which transferred […] of drug solution from each well of the mother plate to each corresponding well of each daughter plate in a single step. The wells of the daughter plates ultimately contained 190 μL of media, 2 μL of drug solution, and 10 μL of inoculum prepared as described below. The final concentration of DMSO (if used as a solvent) in the test well was 1%.
(§7) A standardized inoculum of each organism was prepared per CLSI methods. A suspension of organisms from a fresh plate was prepared in CAMHB to equal the turbidity of a 0.5 McFarland standard. The suspensions were diluted 1:20 in CAMHB, or in the case of streptococci CAMHB with LHB. The inoculum for each organism was dispensed into sterile reservoirs divided by length (Beckman Coulter), and the Biomek 2000 was used to inoculate the plates. Daughter plates were placed on the Biomek 2000 work surface reversed so that inoculation took place from low to high drug concentration. The Biomek 2000 delivered 10 μL of standardized inoculum into each well. These dilutions yielded a final cell concentration in the daughter plates of approximately 5.0×10^5 CFU/mL.
(§8) Plates were stacked 3 high, covered with a lid on the top plate, placed in plastic bags, and incubated at 35° C. for 16-20 hr for all organisms except streptococci which were incubated for 20-24 hr. Following incubation, the microplates were removed from the incubator and viewed from the bottom using a plate viewer. The MIC was read and recorded as the lowest concentration of drug that inhibited visible growth of the organism. […]

[1] = Aqueous solubility analysis in MOPS buffer; format: physicochemical; conditions: aqueous 10 mM MOPS buffer, thermodynamic from solid; after 24 hours in 10 mM aqueous MOPS buffer, pH 7.2
Protocol: A 2 dram vial was loaded with ˜0.5 mg of a thiostrepton derivative and suspended in ˜4 mL of aqueous 10 mM MOPS buffer (pKa 7.2). The suspension was stirred vigorously for 24 h to ensure equilibration, then filtered through a […] centrifuge filtration unit. A 3.0 mL aliquot was concentrated, and the dried residue was diluted with 0.30 mL of 1:1 1,4-dioxane/H2O (10× original concentration necessitated by detection limits). The total UV absorbance (200-300 nm) was measured in triplicate by UPLC runs with a photodiode array detector. A calibration curve for each compound was created using data points from 3 trials each of concentrations in 1:1 1,4-dioxane/H2O ranging from […]. These concentrations were plotted against their respective average absorbances. The experimental concentration of each compound was calculated by dividing the found μg/mL value by the residue concentration factor of 10 to yield the actual solubility value.

[2] = system: E. faecalis ATCC 29212 VSE; assay: MIC broth microdilution; format: cell-based; conditions: Enterococcus faecalis, ATCC29212; E. faecalis ATCC 29212 VSE; CAMHB; read-out: MIC
Protocol: as §1, §2, §3, §4, §5, §6, §7, §8

E. faecium MMX 485 VRE = assay: MIC broth microdilution; format: cell-based; conditions: Enterococcus faecium; E. faecium MMX 485 VRE; CAMHB; read-out: MIC
Protocol: as §1, §2, §3, §4, §5, §6, §7, §8

[3] = system: S. pneumoniae ATCC 49619 PISP; assay: MIC broth microdilution; format: cell-based; conditions: Streptococcus pneumoniae, ATCC49619, 20 h; S. pneumoniae ATCC 49619 PISP; CAMHB with 3% lysed horse blood; read-out: MIC
Protocol: as §1, §2, §3, §4, §5, §6, §7, §8

S. aureus MMX 8088 MRSA = assay: MIC broth microdilution; format: cell-based; conditions: Staphylococcus aureus; S. aureus MMX 8088 MRSA; CAMHB; read-out: MIC
Protocol: as §1, §2, §3, §4, §5, §6, §7, §8

E. faecium MMX 708 VSE = assay: MIC broth microdilution; format: cell-based; conditions: Enterococcus faecium, MMX708VSE; E. faecium MMX 708 VSE; CAMHB; read-out: MIC
Protocol: as §1, §2, §3, §4, §5, §6, §7, §8

[4] = system: S. aureus ATCC 29213 MSSA; assay: MIC broth microdilution; format: cell-based; conditions: Staphylococcus aureus; S. aureus ATCC 29213 MSSA; CAMHB; read-out: MIC
Protocol: as §1, §2, §3, §4, §5, §6, §7, §8

E. coli ATCC 25922 = assay: MIC broth microdilution; format: cell-based; conditions: Escherichia coli, ATCC25922; E. coli ATCC 25922; CAMHB; read-out: MIC
Protocol: as §1, §2, §3, §4, §5, §6, §7, §8

S. pyogenes ATCC 19615 = assay: MIC broth microdilution; format: cell-based; conditions: Streptococcus pyogenes, ATCC19615, 20 h; S. pyogenes ATCC 19615; CAMHB with 3% lysed horse blood; read-out: MIC
Protocol: as §1, §2, §3, §4, §5, §6, §7, §8

E. faecalis MMX 486 VRE = assay: MIC broth microdilution; format: cell-based; conditions: Enterococcus faecalis; E. faecalis MMX 486 VRE; CAMHB; read-out: MIC
Protocol: as §1, §2, §3, §4, §5, §6, §7, §8

[5] = Un-inoculated solubility control plate (drug precipitation); format: physicochemical; conditions: for Precipitation in CAMHB: at 64 μg/mL in CAMHB
[6] = system: E. faecalis and E. faecium; assay: MIC broth microdilution, summary over enterococci; format: cell-based; conditions: across the evaluated enterococci, VSE and VRE; for MIC: read-out: MIC values against E. faecalis and E. faecium
Protocol: as §1, §2, §3, §4, §5, §6, §7, §8

Gram-positive cocci = assay: MIC broth microdilution, overall summary; format: cell-based; conditions: summary of MIC testing
Protocol: as §1, §2, §3, §4, §5
The daughter plates were prepared on the Biomek F/X instrument which transferred […] of drug solution from each well of the mother plate to each corresponding well of each daughter plate in a single step. […]
as §8, with “Following incubation, the microplates were removed from the incubator and viewed from the bottom using a plate viewer.” left out

SMILES	MIC (S. aureus isolates) [µg/mL]	solubility at 24 h [1] [µg/mL]	MIC [2] [µg/mL]	MIC (E. faecium MMX 485 VRE) [µg/mL]	MIC [3] [µg/mL]	MIC (S. aureus MMX 8088 MRSA) [µg/mL]	MIC (E. faecium MMX 708 VSE) [µg/mL]	MIC [4] [µg/mL]	MIC (E. coli ATCC 25922) [µg/mL]	MIC (S. pyogenes ATCC 19615) [µg/mL]	MIC (E. faecalis MMX 486 VRE) [µg/mL]	Precipitation in CAMHB [5]	MIC [6] [µg/mL]	Activity among the evaluated analogs / against evaluated Gram-positive cocci (summary in words) (Gram-positive cocci)	MIC values against E. faecalis and E. faecium [6] [µg/mL]	Precipitation in CAMHB in LHB ([5]; at 64 μg/mL in CAMHB in LHB)
C=C(NC(=O)c1csc(C2=N[C@@H]3c4csc(n4)[C@H]4NC(=O)c5csc(n5)[C@H]([C@](C)(O)[C@@H](C)O)NC(=O)C5CSC(=N5)/C(=C/C)NC(=O)[C@H]([C@@H](C)O)NC(=O)c5csc(n5)[C@]3(CC2)NC(=O)[C@H](C)NC(=O)C(=C)NC(=O)[C@H](C)NC(=O)[C@H]([C@@H](C)CC)N[C@@H]2C=Cc3c([C@H](C)O)cc(nc3[C@H]2O)C(=O)O[C@@H]4C)n1)C(=O)NC(=CNC(=O)C(C)C)C(N)=O [RJS-04]	0.25 to 0.5 (≈ 0.143 to 0.286 µM)	16.2 (≈ 9.26 µM)	0.5 (≈ 0.286 µM)	0.25 (≈ 0.143 µM)	0.004 (≈ 0.00229 µM)	0.5 (≈ 0.286 µM)	1 (≈ 0.571 µM)	0.5 (≈ 0.286 µM)	> 64	0.004 (≈ 0.00229 µM)	1 (≈ 0.571 µM)	distinct precipitation				
C=C(NC(=O)c1csc(C2=N[C@@H]3c4csc(n4)[C@H]4NC(=O)c5csc(n5)[C@H]([C@](C)(O)[C@@H](C)O)NC(=O)C5CSC(=N5)/C(=C/C)NC(=O)[C@H]([C@@H](C)O)NC(=O)c5csc(n5)[C@]3(CC2)NC(=O)[C@H](C)NC(=O)C(=C)NC(=O)[C@H](C)NC(=O)[C@H]([C@@H](C)CC)N[C@@H]2C=Cc3c([C@H](C)O)cc(nc3[C@H]2O)C(=O)O[C@@H]4C)n1)C(=O)NC(=CNC(=O)c1ccc(Cl)cc1)C(N)=O [RJS-09]	0.25 to 0.5 (≈ 0.137 to 0.275 µM)	< 1	0.25 (≈ 0.137 µM)	0.12 (≈ 0.066 µM)	< 0.001	0.5 (≈ 0.275 µM)	0.25 (≈ 0.137 µM)	0.25 (≈ 0.137 µM)	> 64	0.002 (≈ 0.0011 µM)	0.25 (≈ 0.137 µM)	distinct precipitation	0.12 to 0.25 (≈ 0.066 to 0.137 µM)	most activity		
C=C(NC(=O)c1csc(C2=N[C@@H]3c4csc(n4)[C@H]4NC(=O)c5csc(n5)[C@H]([C@](C)(O)[C@@H](C)O)NC(=O)C5CSC(=N5)/C(=C/C)NC(=O)[C@H]([C@@H](C)O)NC(=O)c5csc(n5)[C@]3(CC2)NC(=O)[C@H](C)NC(=O)C(=C)NC(=O)[C@H](C)NC(=O)[C@H]([C@@H](C)CC)N[C@@H]2C=Cc3c([C@H](C)O)cc(nc3[C@H]2O)C(=O)O[C@@H]4C)n1)C(=O)NC(=CNC(=O)c1cccc(/C=N/OC)c1)C(N)=O [RJS-11]	0.25 to 0.5 (≈ 0.136 to 0.272 µM)	< 1	0.5 (≈ 0.272 µM)	0.25 (≈ 0.136 µM)	< 0.001	0.5 (≈ 0.272 µM)	0.25 (≈ 0.136 µM)	0.5 (≈ 0.272 µM)	> 64	< 0.001	0.25 (≈ 0.136 µM)	distinct precipitation	0.25 (≈ 0.136 µM)	most activity	0.5 (≈ 0.272 µM)	
C=C(NC(=O)c1csc(C2=N[C@@H]3c4csc(n4)[C@H]4NC(=O)c5csc(n5)[C@H]([C@](C)(O)[C@@H](C)O)NC(=O)C5CSC(=N5)/C(=C/C)NC(=O)[C@H]([C@@H](C)O)NC(=O)c5csc(n5)[C@]3(CC2)NC(=O)[C@H](C)NC(=O)C(=C)NC(=O)[C@H](C)NC(=O)[C@H]([C@@H](C)CC)N[C@@H]2C=Cc3c([C@H](C)O)cc(nc3[C@H]2O)C(=O)O[C@@H]4C)n1)C(=O)NC(=CNC(=O)c1cccc(/C=N/OCCO)c1)C(N)=O [RJS-14]	0.25 to 0.5 (≈ 0.134 to 0.267 µM)	1.4 (≈ 0.748 µM)	0.5 (≈ 0.267 µM)	0.5 (≈ 0.267 µM)	0.004 (≈ 0.00214 µM)	0.5 (≈ 0.267 µM)	1 (≈ 0.534 µM)	0.5 (≈ 0.267 µM)	> 64	0.004 (≈ 0.00214 µM)	0.5 (≈ 0.267 µM)					
C=C(NC(=O)c1csc(C2=N[C@@H]3c4csc(n4)[C@H]4NC(=O)c5csc(n5)[C@H]([C@](C)(O)[C@@H](C)O)NC(=O)C5CSC(=N5)/C(=C/C)NC(=O)[C@H]([C@@H](C)O)NC(=O)c5csc(n5)[C@]3(CC2)NC(=O)[C@H](C)NC(=O)C(=C)NC(=O)[C@H](C)NC(=O)[C@H]([C@@H](C)CC)N[C@@H]2C=Cc3c([C@H](C)O)cc(nc3[C@H]2O)C(=O)O[C@@H]4C)n1)C(=O)NC(=CNC(=O)c1cccc(/C=N/O)c1)C(N)=O [RJS-17]	0.25 to 0.5 (≈ 0.137 to 0.274 µM)	< 1	1 (≈ 0.547 µM)	0.5 (≈ 0.274 µM)	0.002 (≈ 0.00109 µM)	0.5 (≈ 0.274 µM)	0.5 (≈ 0.274 µM)	0.5 (≈ 0.274 µM)	> 64	0.004 (≈ 0.00219 µM)	0.5 (≈ 0.274 µM)					distinct precipitation
